Measured values as given in the NIST ThermoML archive (doi:10.1016/j.jct.2016.01.026).

Assay: osmotic coefficient (dimensionless); mn = molality of the nth substance listed, in mol/kg
Conditions: 323.15 K, 100 kPa, Liquid, Knauer K-7000 vapor pressure osmometer (VPO)

CCC[N+]1(C)CCCCC1.O=S(=O)([O-])C(F)(F)F [1-methyl-1-propylpiperidinium triflate] + CC(C)O
Conditions | osmotic coefficient
m1 = 0.0801 | 0.897
m1 = 0.1937 | 0.743
m1 = 0.3155 | 0.645
m1 = 0.4021 | 0.587
m1 = 0.5062 | 0.545
m1 = 0.5964 | 0.516
m1 = 0.7001 | 0.491
m1 = 0.7943 | 0.466
m1 = 0.9894 | 0.443
m1 = 1.268 | 0.422

CCC[N+]1(C)CCCCC1.O=S(=O)([O-])C(F)(F)F [1-methyl-1-propylpiperidinium triflate] + CCC(C)O
Conditions | osmotic coefficient
m1 = 0.0525 | 0.851
m1 = 0.081 | 0.769
m1 = 0.0996 | 0.701
m1 = 0.1561 | 0.608
m1 = 0.1983 | 0.572
m1 = 0.2451 | 0.528
m1 = 0.304 | 0.498
m1 = 0.3569 | 0.477
m1 = 0.4029 | 0.457
m1 = 0.498 | 0.432
m1 = 0.5936 | 0.419
m1 = 0.7108 | 0.405

CCC[N+]1(C)CCCCC1.O=S(=O)([O-])C(F)(F)F [1-methyl-1-propylpiperidinium triflate] + CCCCCO
Conditions | osmotic coefficient
m1 = 0.0415 | 0.757
m1 = 0.0616 | 0.593
m1 = 0.0823 | 0.542
m1 = 0.1025 | 0.521
m1 = 0.1211 | 0.502
m1 = 0.1427 | 0.48
m1 = 0.1632 | 0.472
m1 = 0.1816 | 0.465
m1 = 0.2018 | 0.451
m1 = 0.2209 | 0.441
m1 = 0.2407 | 0.431
m1 = 0.2643 | 0.418

CCC[N+]1(C)CCCCC1.O=S(=O)([O-])C(F)(F)F [1-methyl-1-propylpiperidinium triflate] + CCCCO
Conditions | osmotic coefficient
m1 = 0.053 | 0.781
m1 = 0.0791 | 0.706
m1 = 0.0996 | 0.657
m1 = 0.1455 | 0.604
m1 = 0.2006 | 0.559
m1 = 0.25 | 0.519
m1 = 0.3019 | 0.491
m1 = 0.355 | 0.467
m1 = 0.4011 | 0.453
m1 = 0.4998 | 0.417
m1 = 0.5953 | 0.403
m1 = 0.7001 | 0.387
m1 = 0.78 | 0.379

CCC[N+]1(C)CCCCC1.O=S(=O)([O-])C(F)(F)F [1-methyl-1-propylpiperidinium triflate] + CCCO
Conditions | osmotic coefficient
m1 = 0.0866 | 0.825
m1 = 0.1046 | 0.769
m1 = 0.1966 | 0.661
m1 = 0.2936 | 0.585
m1 = 0.3928 | 0.521
m1 = 0.5005 | 0.483
m1 = 0.6023 | 0.468
m1 = 0.7009 | 0.452
m1 = 0.8047 | 0.438
m1 = 1.008 | 0.418
m1 = 1.195 | 0.398
m1 = 1.422 | 0.379
